pIC50: −log10 of the molar value. Read-outs that look alike come from different tables or passages of the source.
How the values were obtained:
[1] = system: OVCAR-8; assay: NCI one-dose screening, ovarian cancer OVCAR-8; format: cell-based, human; conditions: 10 μM
[2] = system: SF-295; assay: NCI one-dose screening, CNS cancer SF-295; format: cell-based, human; conditions: 10 μM
[3] = system: NCl/ADR-RES; assay: NCI one-dose screening, breast cancer NCl/ADR-RES; format: cell-based, human; conditions: 10 μM; listed under Ovarian cancer
[4] = system: T-47D; assay: NCI one-dose screening, breast cancer T-47D; format: cell-based, human; conditions: 10 μM
[5] = system: BT-549; assay: NCI one-dose screening, breast cancer BT-549; format: cell-based, human; conditions: 10 μM
[6] = system: SK-MEL-28; assay: NCI one-dose screening, melanoma SK-MEL-28; format: cell-based, human; conditions: 10 μM
[7] = system: COLO 205; assay: NCI one-dose screening, colon cancer COLO 205; format: cell-based, human; conditions: 10 μM
[8] = system: MALME-3M; assay: NCI one-dose screening, melanoma MALME-3M; format: cell-based, human; conditions: 10 μM
[9] = system: PC-3; assay: NCI one-dose screening, prostate cancer PC-3; format: cell-based, human; conditions: 10 μM
[10] = system: UO-31; assay: NCI one-dose screening, renal cancer UO-31; format: cell-based, human; conditions: 10 μM
[11] = system: HL-60, TB; assay: NCI one-dose screening, leukemia HL-60, TB; format: cell-based, human; conditions: 10 μM
[12] = system: IGROV1; assay: NCI one-dose screening, ovarian cancer IGROV1; format: cell-based, human; conditions: 10 μM
[13] = system: U251; assay: NCI one-dose screening, CNS cancer U251; format: cell-based, human; conditions: 10 μM
[14] = system: DU145; assay: NCI one-dose screening, prostate cancer DU145; format: cell-based, human; conditions: 10 μM
[15] = system: CCRF-CEM; assay: NCI screening platform one-dose single concentration screening, leukemia CCRF-CEM; format: cell-based, human; conditions: 10 μM
[16] = system: TK-10; assay: NCI one-dose screening, renal cancer TK-10; format: cell-based, human; conditions: 10 μM
[17] = system: SF-268; assay: NCI one-dose screening, CNS cancer SF-268; format: cell-based, human; conditions: 10 μM
[18] = system: SK-MEL-2; assay: NCI one-dose screening, melanoma SK-MEL-2; format: cell-based, human; conditions: 10 μM
[19] = system: UACC-62; assay: NCI one-dose screening, melanoma UACC-62; format: cell-based, human; conditions: 10 μM
[20] = system: PRMI-8226 cell line; assay: NCI one-dose screening, leukemia PRMI-8226; format: cell-based, human; conditions: 10 μM
[21] = system: HOP-92; assay: NCI one-dose screening, non-small cell lung cancer HOP-92; format: cell-based, human; conditions: 10 μM
[22] = system: HOP-62; assay: NCI one-dose screening, non-small cell lung cancer HOP-62; format: cell-based, human; conditions: 10 μM
[23] = system: SR; assay: NCI one-dose screening, leukemia SR; format: cell-based, human; conditions: 10 μM
[24] = system: HCT-116; assay: NCI one-dose screening, colon cancer HCT-116; format: cell-based, human; conditions: 10 μM
[25] = system: MCF7; assay: NCI one-dose screening, breast cancer MCF7; format: cell-based, human; conditions: 10 μM
[26] = system: SK-OV-3; assay: NCI one-dose screening, ovarian cancer SK-OV-3; format: cell-based, human; conditions: 10 μM
[27] = system: SK-MEL-5; assay: NCI one-dose screening, melanoma SK-MEL-5; format: cell-based, human; conditions: 10 μM
[28] = system: NCI-H322M; assay: NCI one-dose screening, non-small cell lung cancer NCI-H322M; format: cell-based, human; conditions: 10 μM; Non-small cell lung cancer
[29] = system: CAKI-1; assay: NCI one-dose screening, renal cancer CAKI-1; format: cell-based, human; conditions: 10 μM
[30] = system: RXF, 393; assay: NCI one-dose screening, renal cancer RXF, 393; format: cell-based, human; conditions: 10 μM
[31] = system: PC-3 prostate cancer cell line; assay: SRB assay cell viability, PC-3 prostate cancer cell line; format: cell-based, human; conditions: Homo sapiens
[32] = system: UACC-257; assay: NCI one-dose screening, melanoma UACC-257; format: cell-based, human; conditions: 10 μM
[33] = system: A549/ATCC; assay: NCI one-dose screening, non-small cell lung cancer A549/ATCC; format: cell-based, human; conditions: 10 μM
[34] = system: SNB-19; assay: NCI one-dose screening, CNS cancer SNB-19; format: cell-based, human; conditions: 10 μM
[35] = system: K562cell line; assay: NCI one-dose screening, leukemia K562; format: cell-based, human; conditions: 10 μM
[36] = system: MDA-MB-231/ATCC; assay: NCI one-dose screening, breast cancer MDA-MB-231/ATCC; format: cell-based, human; conditions: 10 μM
[37] = system: HCC-2998; assay: NCI one-dose screening, colon cancer HCC-2998; format: cell-based, human; conditions: 10 μM
[38] = system: 786-O; assay: NCI one-dose screening, renal cancer 786-O; format: cell-based, human; conditions: 10 μM
[39] = system: NCI-H23; assay: NCI one-dose screening, non-small cell lung cancer NCI-H23; format: cell-based, human; conditions: 10 μM
[40] = system: NCI-H522; assay: NCI one-dose screening, non-small cell lung cancer NCI-H522; format: cell-based, human; conditions: 10 μM
[41] = NCI one-dose screening, renal cancer A489; format: cell-based, human; conditions: 10 μM
[42] = system: HCT-15; assay: NCI one-dose screening, colon cancer HCT-15; format: cell-based, human; conditions: 10 μM
[43] = system: SF-539; assay: NCI one-dose screening, CNS cancer SF-539; format: cell-based, human; conditions: 10 μM
[44] = system: LOX IMVI; assay: NCI one-dose screening, melanoma LOX IMVI; format: cell-based, human; conditions: 10 μM
[45] = system: MOLT-4; assay: NCI one-dose screening, leukemia MOLT-4; format: cell-based, human; conditions: 10 μM
[46] = system: SNB-75; assay: NCI one-dose screening, CNS cancer SNB-75; format: cell-based, human; conditions: 10 μM
[47] = system: M14; assay: NCI one-dose screening, melanoma M14; format: cell-based, human; conditions: 10 μM
[48] = system: NCI-H460; assay: NCI one-dose screening, non-small cell lung cancer NCI-H460; format: cell-based, human; conditions: 10 μM
[49] = system: MDA-MB-468; assay: NCI one-dose screening, breast cancer MDA-MB-468; format: cell-based, human; conditions: 10 μM
[50] = system: OVCAR-3; assay: NCI one-dose screening, ovarian cancer OVCAR-3; format: cell-based, human; conditions: 10 μM
[51] = system: human tumor cell lines; assay: NCI one-dose screening, Mean / Delta / Range of growth percent over all tested cell lines; format: cell-based; conditions: 10 μM
[52] = system: KM12; assay: NCI one-dose screening, colon cancer KM12; format: cell-based, human; conditions: 10 μM
[53] = system: MDA, -MB-435; assay: NCI one-dose screening, breast cancer MDA, -MB-435; format: cell-based, human; conditions: 10 μM; listed under Melanoma
[54] = system: OVCAR-4; assay: NCI one-dose screening, ovarian cancer OVCAR-4; format: cell-based, human; conditions: 10 μM
[55] = system: SN12C; assay: NCI one-dose screening, renal cancer SN12C; format: cell-based, human; conditions: 10 μM
[56] = system: HS 578-T; assay: NCI one-dose screening, breast cancer HS 578-T; format: cell-based, human; conditions: 10 μM; Breast cancer

## O=C1c2ccccc2C(=O)c2c1cc(SCc1ccccc1)c1nsnc21 [C21, 4-(benzyl-thio)anthra[2,1-c][1,2,5] thiadiazol-6,11-dione]
[1]
  Growth Percent OVCAR-8: 6.01%
[2]
  Growth Percent SF-295: 91.56%
[3]
  Growth Percent NCI/ADR-RES: 62.34%
[4]
  Growth Percent T-47D: −46.11%
[5]
  Growth Percent BT-549: 96.19%
[6]
  Growth Percent SK-MEL-28: 95.00%
[7]
  Growth Percent COLO 205: 102.93%
[8]
  Growth Percent MALME-3M: 80.81%
[9]
  Growth Percent PC-3: 38.44%
[10]
  Growth Percent UO-31: 73.75%
[11]
  Growth Percent HL-60(TB): 70.32%
[12]
  Growth Percent IGROV1: 43.88%
[13]
  Growth Percent U251: 30.51%
[14]
  Growth Percent DU145: 82.23%
[15]
  Growth Percent CCRF-CEM: 0.65%
[16]
  Growth Percent TK-10: 129.90%
[17]
  Growth Percent SF-268: 56.01%
[18]
  Growth Percent SK-MEL-2: −3.95%
[19]
  Growth Percent UACC-62: 43.08%
[20]
  Growth Percent RPMI-8226: 43.23%
[21]
  Growth Percent HOP-92: 83.65%
[22]
  Growth Percent HOP-62: 94.98%
[23]
  Growth Percent SR: 1.25%
[24]
  Growth Percent HCT-116: 53.06%
[25]
  Growth Percent MCF7: 56.44%
[26]
  Growth Percent SK-OV-3: 80.29%
[27]
  Growth Percent SK-MEL-5: 22.53%
[28]
  Growth Percent NCI-H322M: 55.30%
[29]
  Growth Percent CAKI-1: 73.77%
[30]
  Growth Percent RXF 393: 68.12%
[31]; PC-3 prostate cancer cell line, Table II prints no unit, μM printed, read-out: SRB assay: 50% inhibition of cancer cell proliferation of sample concentration (IC50) of PC-3 prostate cancer cell line
  IC50: > 15 µM
[31]; PC-3 prostate cancer cells, read-out: IC50 in PC-3 prostate cancer cells (cell viability analysis)
  pIC50: < 4.82
[32]
  Growth Percent UACC-257: 58.86%
[33]
  Growth Percent A549/ATCC: 101.64%
[34]
  Growth Percent SNB-19: 94.26%
[35]
  Growth Percent K562: 10.51%
[36]
  Growth Percent MDA-MB-231/ATCC: −13.36%
[37]
  Growth Percent HCC-2998: 115.02%
[38]
  Growth Percent 786-0: 92.60%
[39]
  Growth Percent NCI-H23: 101.09%
[40]
  Growth Percent NCI-H522: 92.01%
[41]
  Growth Percent A498: 88.61%
[42]
  Growth Percent HCT-15: 54.72%
[43]
  Growth Percent SF-539: 68.26%
[44]
  Growth Percent LOX IMVI: 7.49%
[45]
  Growth Percent MOLT-4: −20.97%
[46]
  Growth Percent SNB-75: 39.58%
[47]
  Growth Percent M14: 86.54%
[48]
  Growth Percent NCI-H460: 98.44%
[49]
  Growth Percent MDA-MB-468: −85.29%
[50]
  Growth Percent OVCAR-3: 25.27%
[51]; delta over all cell lines
  Growth Percent Delta: 136.92%
[51]; mean over all cell lines
  Growth Percent Mean: 51.63%
[51]; range over all cell lines
  Growth Percent Range: 215.19%
[52]
  Growth Percent KM12: 103.02%
[53]
  Growth Percent MDA-MB-435: −48.29%
[54]
  Growth Percent OVCAR-4: −68.15%
[55]
  Growth Percent SN12C: 66.11%
[56]
  Growth Percent HS 578T: 59.96%
